In patent US6855843B2, “Inhibitors of α4 mediated cell adhesion” (Tanabe Seiyaku Co., Ltd., priority 1998, dated 2005):

Columns and labels:
[1] = molecular target: T1, α4β7 (adhesion of RPMI cells to CS-1) (Homo sapiens, UniProt P13612+P26010); assay: RPMI-CS-1 cell adhesion assay; type: cell-based; conditions: adhesion of RPMI B-cell line (expresses α4β7) to CS-1 peptide coated microwells; read-out: RPMI-CS-1 IC50 value range
T1 construct: endogenous in cells
T1 sequence (P13612 34-1032): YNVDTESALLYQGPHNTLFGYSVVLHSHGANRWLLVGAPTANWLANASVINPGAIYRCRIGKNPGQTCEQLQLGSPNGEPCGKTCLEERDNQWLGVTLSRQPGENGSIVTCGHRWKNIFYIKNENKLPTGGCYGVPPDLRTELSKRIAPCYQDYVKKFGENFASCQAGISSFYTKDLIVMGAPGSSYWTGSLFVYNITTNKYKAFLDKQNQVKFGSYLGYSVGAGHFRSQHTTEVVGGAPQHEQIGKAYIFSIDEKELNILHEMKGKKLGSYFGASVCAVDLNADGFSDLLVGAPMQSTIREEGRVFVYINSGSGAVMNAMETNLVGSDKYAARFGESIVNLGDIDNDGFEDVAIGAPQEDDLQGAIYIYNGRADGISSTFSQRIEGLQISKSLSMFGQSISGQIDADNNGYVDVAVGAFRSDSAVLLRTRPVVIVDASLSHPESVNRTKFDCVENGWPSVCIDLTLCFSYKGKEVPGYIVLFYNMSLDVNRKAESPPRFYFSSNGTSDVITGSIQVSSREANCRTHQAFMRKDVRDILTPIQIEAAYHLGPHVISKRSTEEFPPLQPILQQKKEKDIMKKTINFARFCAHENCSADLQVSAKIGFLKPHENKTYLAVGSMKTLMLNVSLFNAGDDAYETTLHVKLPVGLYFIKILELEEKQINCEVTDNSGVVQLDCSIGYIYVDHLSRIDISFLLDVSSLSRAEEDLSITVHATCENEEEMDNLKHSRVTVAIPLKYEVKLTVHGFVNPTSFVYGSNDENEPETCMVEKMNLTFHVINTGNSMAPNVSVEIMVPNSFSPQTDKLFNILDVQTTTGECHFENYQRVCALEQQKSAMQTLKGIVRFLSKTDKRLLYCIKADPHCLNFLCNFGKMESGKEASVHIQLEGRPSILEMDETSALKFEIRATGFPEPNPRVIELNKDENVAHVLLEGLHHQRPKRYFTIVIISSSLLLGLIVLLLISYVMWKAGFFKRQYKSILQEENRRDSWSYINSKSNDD
T1 sequence (P26010 20-798): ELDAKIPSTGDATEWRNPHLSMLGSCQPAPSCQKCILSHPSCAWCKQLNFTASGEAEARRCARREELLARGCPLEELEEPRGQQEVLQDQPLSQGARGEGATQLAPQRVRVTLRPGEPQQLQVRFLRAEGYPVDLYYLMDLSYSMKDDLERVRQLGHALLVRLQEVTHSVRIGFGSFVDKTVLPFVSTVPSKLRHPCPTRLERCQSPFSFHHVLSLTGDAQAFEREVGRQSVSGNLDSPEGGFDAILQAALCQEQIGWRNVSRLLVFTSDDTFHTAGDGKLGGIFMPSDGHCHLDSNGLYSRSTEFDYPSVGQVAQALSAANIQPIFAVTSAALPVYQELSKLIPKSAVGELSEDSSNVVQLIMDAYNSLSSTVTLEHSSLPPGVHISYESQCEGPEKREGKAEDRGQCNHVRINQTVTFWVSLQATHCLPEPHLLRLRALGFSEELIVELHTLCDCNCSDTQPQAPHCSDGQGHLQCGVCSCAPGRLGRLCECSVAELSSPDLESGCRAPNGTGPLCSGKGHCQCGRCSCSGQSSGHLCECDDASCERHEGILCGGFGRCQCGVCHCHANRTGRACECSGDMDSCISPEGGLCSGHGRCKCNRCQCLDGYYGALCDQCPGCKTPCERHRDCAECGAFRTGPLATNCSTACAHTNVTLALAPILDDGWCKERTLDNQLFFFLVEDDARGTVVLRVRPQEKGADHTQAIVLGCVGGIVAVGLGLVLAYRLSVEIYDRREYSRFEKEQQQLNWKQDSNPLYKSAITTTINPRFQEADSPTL

Question: With `CC(O)c1cc(C[C@H](NC(=O)c2c(Cl)cccc2Cl)C(=O)O)ccc1-c1ccccc1` (stereo partly drawn) [Example 74, N-(2,6-Dichlorobenzoyl)-3-(1-hydroxyethyl)-4-phenyl-L-phenylalanine] as the molecule, how does the IC50 [1] read?
Answer: The IC50 was 300 to 1000 nM.

Question: What about the melting point of the same molecule?
Answer: Its melting point is 115 to 117 °C.

Question: Which IC50 [1] does the source give for `COc1ccccc1-c1ccc(C[C@H](NC(=O)c2c(Cl)cccc2Cl)C(=O)O)cc1OC` [Example 75, N-(2,6-Dichlorobenzoyl)-3-methoxy-4-(2-methoxyphenyl)-L-phenylalanine] here?
Answer: Its IC50 is under 300 nM.

Question: And the melting point?
Answer: Its melting point is 100 to 102 °C.

Question: Which results are given for `Cc1cccc(C)c1-c1ccc(C[C@H](NC(=O)c2c(Cl)cccc2Cl)C(=O)O)cc1` [Example 145]?
Answer: IC50 [1]: 1000 to 5000 nM; melting point: 200 to 201 °C

Question: Which results are given for `O=C(N[C@@H](Cc1ccc(-c2c(C(F)(F)F)cccc2C(F)(F)F)cc1)C(=O)O)c1c(Cl)cccc1Cl` [Example 146]?
Answer: IC50 [1]: 300 to 1000 nM; melting point: 259 to 260 °C

Question: Which IC50 [1] does the source give for `COc1c(C)c(OC)c(-c2ccc(C[C@H](NC(=O)c3c(Cl)cccc3Cl)C(=O)O)cc2)c(OC)c1C` [Example 147] here?
Answer: Its IC50 is under 300 nM.

Question: What about the melting point of the same molecule?
Answer: The melting point was 114 to 115 °C.

Question: For `COc1cc(C)cc(OC)c1-c1ccc(C[C@H](NC(=O)c2c(Cl)cccc2Cl)C(=O)O)cc1` [Example 148], which IC50 [1] is on record?
Answer: Its IC50 is under 300 nM.

Question: And the melting point?
Answer: The melting point was 233 to 234 °C.

Question: Which IC50 [1] does the source give for `CCCc1cc(OC)c(-c2ccc(C[C@H](NC(=O)c3c(Cl)cccc3Cl)C(=O)O)cc2)c(OC)c1` [Example 149] here?
Answer: Its IC50 is under 300 nM.

Question: And the melting point?
Answer: The melting point was 238 to 239 °C (dec.).

Question: Which results are given for `COc1ccc(F)c(OC)c1-c1ccc(C[C@H](NC(=O)c2c(Cl)cccc2Cl)C(=O)O)cc1` [Example 153A, N-(2,6-Dichlorobenzoyl)-4-(2,6-dimethoxy-3-fluorophenyl)-L-phenylalanine]?
Answer: IC50 [1]: < 300 nM; melting point: 228 to 229 °C

Question: What does the source list for `C=CCN(C(=O)OC(C)(C)C)c1cc(OC)c(-c2ccc(C[C@H](NC(=O)c3c(Cl)cccc3Cl)C(=O)O)cc2)c(OC)c1` [Example 155, N-(2,6-Dichlorobenzoyl)-4-[4-(N-allyl-N-tert-butoxycarbonylamino)-2,6-dimethoxyphenyl]-L-phenylalanine]?
Answer: IC50 [1]: < 300 nM; melting point: 138 to 139 °C

Question: Which IC50 [1] does the source give for `C=CCNc1cc(OC)c(-c2ccc(C[C@H](NC(=O)c3c(Cl)cccc3Cl)C(=O)O)cc2)c(OC)c1` [Example 156, N-(2,6-Dichlorobenzoyl)-4-(4-allylamino-2,6-dimethoxyphenyl)-L-phenylalanine] here?
Answer: The IC50 was under 300 nM.

Question: What about the melting point of the same molecule?
Answer: The melting point was 262 to 263 °C (dec.).

Question: Which IC50 [1] does the source give for `COc1cc(N)cc(OC)c1-c1ccc(C[C@H](NC(=O)c2c(Cl)cccc2Cl)C(=O)O)cc1` [Example 157, N-(2,6-Dichlorobenzoyl)-4-(4-amino-2,6-dimethoxyphenyl)-L-phenylalanine] here?
Answer: Its IC50 is under 300 nM.

Question: And the melting point?
Answer: Its melting point is 221 to 222 °C.

Question: With `COC(=O)Nc1cc(OC)c(-c2ccc(C[C@H](NC(=O)c3c(Cl)cccc3Cl)C(=O)O)cc2)c(OC)c1` [Example 158, N-(2,6-Dichlorobenzoyl)-4-(4-methoxycarbonylamino-2,6-dimethoxyphenyl)-L-phenylalanine] as the molecule, how does the IC50 [1] read?
Answer: The IC50 was under 300 nM.

Question: What about the melting point of the same molecule?
Answer: Its melting point is 235 to 236 °C.

Question: Which results are given for `COc1cc(NC(C)=O)cc(OC)c1-c1ccc(C[C@H](NC(=O)c2c(Cl)cccc2Cl)C(=O)O)cc1` [Example 159, N-(2,6-Dichlorobenzoyl)-4-(4-acetylamino-2,6-dimethoxyphenyl)-L-phenylalanine]?
Answer: IC50 [1]: < 300 nM; melting point: 243 to 244 °C

Question: With `CNC(=O)Nc1cc(OC)c(-c2ccc(C[C@H](NC(=O)c3c(Cl)cccc3Cl)C(=O)O)cc2)c(OC)c1` [Example 160, N-(2,6-Dichlorobenzoyl)-4-[4-(3-methylureido)-2,6-dimethoxyphenyl]-L-phenylalanine] as the molecule, how does the IC50 [1] read?
Answer: Its IC50 is under 300 nM.

Question: And the melting point?
Answer: The melting point was 206 to 207 °C.

Question: Which IC50 [1] does the source give for `COc1cc(NC(=O)Nc2ccccc2C)cc(OC)c1-c1ccc(C[C@H](NC(=O)c2c(Cl)cccc2Cl)C(=O)O)cc1` [Example 161, N-(2,6-Dichlorobenzoyl)-4-[4-[3-(2-methylphenyl)ureido]-2,6-dimethoxyphenyl]-L-phenylalanine] here?
Answer: The IC50 was under 300 nM.

Question: And the melting point?
Answer: Its melting point is 194 to 195 °C.

Question: Which IC50 [1] does the source give for `CNC(=S)Nc1cc(OC)c(-c2ccc(C[C@H](NC(=O)c3c(Cl)cccc3Cl)C(=O)O)cc2)c(OC)c1` [Example 162, N-(2,6-Dichlorobenzoyl)-4-[2,6-dimethoxy-4-(3-methylthioureido)phenyl]-L-phenylalanine] here?
Answer: Its IC50 is under 300 nM.

Question: What about the melting point of the same molecule?
Answer: The melting point was 197 to 198 °C.

Question: With `COc1cc(NS(C)(=O)=O)cc(OC)c1-c1ccc(C[C@H](NC(=O)c2c(Cl)cccc2Cl)C(=O)O)cc1` [Example 163, N-(2,6-Dichlorobenzoyl)-4-[2,6-dimethoxy-4-[(methylsulfonyl)amino]phenyl]-L-phenylalanine] as the molecule, how does the IC50 [1] read?
Answer: Its IC50 is under 300 nM.

Question: And the melting point?
Answer: Its melting point is 154 to 155 °C.

Question: For `CNC(=O)c1cc(OC)c(-c2ccc(C[C@H](NC(=O)c3c(Cl)cccc3Cl)C(=O)O)cc2)c(OC)c1` [Example 165, N-(2,6-Dichlorobenzoyl)-4-(4-methylcarbamoyl-2,6-dimethoxyphenyl)-L-phenylalanine], which IC50 [1] is on record?
Answer: Its IC50 is under 300 nM.

Question: And the melting point?
Answer: Its melting point is 251 to 252 °C.

Question: Which IC50 [1] does the source give for `COc1cc(C(=O)N(C)C)cc(OC)c1-c1ccc(C[C@H](NC(=O)c2c(Cl)cccc2Cl)C(=O)O)cc1` [Example 166] here?
Answer: The IC50 was under 300 nM.

Question: What about the melting point of the same molecule?
Answer: Its melting point is 219 to 221 °C.

Question: Which results are given for `COc1cc(C(=O)NCc2ccccc2)cc(OC)c1-c1ccc(C[C@H](NC(=O)c2c(Cl)cccc2Cl)C(=O)O)cc1` [Example 167]?
Answer: IC50 [1]: < 300 nM; melting point: 153 to 154 °C

Question: Which IC50 [1] does the source give for `COc1cc(C(=O)NC(C)C)cc(OC)c1-c1ccc(C[C@H](NC(=O)c2c(Cl)cccc2Cl)C(=O)O)cc1` [Example 168] here?
Answer: The IC50 was under 300 nM.

Question: What about the melting point of the same molecule?
Answer: The melting point was 261 to 262 °C.

Question: For `COc1cc(C(=O)NCCCO)cc(OC)c1-c1ccc(C[C@H](NC(=O)c2c(Cl)cccc2Cl)C(=O)O)cc1` [Example 169], which IC50 [1] is on record?
Answer: The IC50 was under 300 nM.

Question: What about the melting point of the same molecule?
Answer: The melting point was 222 to 223 °C.

Question: Which results are given for `COc1cc(C(=O)NCCN2CCOCC2)cc(OC)c1-c1ccc(C[C@H](NC(=O)c2c(Cl)cccc2Cl)C(=O)O)cc1` [Example 171]?
Answer: IC50 [1]: < 300 nM; melting point: 268 to 269 °C

Question: Which results are given for `COc1cc(C(=O)O)cc(OC)c1-c1ccc(C[C@H](NC(=O)c2c(Cl)cccc2Cl)C(=O)O)cc1` [Example 172, N-(2,6-Dichlorobenzoyl)-4-(4-carboxy-2,6-dimethoxyphenyl)-L-phenylalanine]?
Answer: IC50 [1]: < 300 nM; melting point: 277 to 278 °C

Question: Which results are given for `COc1cc(C(=O)NS(C)(=O)=O)cc(OC)c1-c1ccc(C[C@H](NC(=O)c2c(Cl)cccc2Cl)C(=O)O)cc1` [Example 173, N-(2,6-Dichlorobenzoyl)-4-[4-(methanesulfonylamino)carbonyl-2,6-dimethoxyphenyl]-L-phenylalanine]?
Answer: IC50 [1]: < 300 nM; melting point: 277 to 278 °C

Question: For `COCOc1ccc(OC)c(-c2ccc(C[C@H](NC(=O)c3c(Cl)cccc3Cl)C(=O)O)cc2)c1OC` [Example 174, N-(2,6-Dichlorobenzoyl)-4-(2,6-dimethoxy-3-methoxymethoxyphenyl)-L-phenylalanine], which IC50 [1] is on record?
Answer: Its IC50 is under 300 nM.

Question: And the melting point?
Answer: The melting point was 156 to 157 °C.

Question: Which IC50 [1] does the source give for `COc1ccc(O)c(OC)c1-c1ccc(C[C@H](NC(=O)c2c(Cl)cccc2Cl)C(=O)O)cc1` [Example 175, N-(2,6-Dichlorobenzoyl)-4-(2,6-dimethoxy-3-hydroxyphenyl)-L-phenylalanine] here?
Answer: Its IC50 is under 300 nM.

Question: What about the melting point of the same molecule?
Answer: Its melting point is 164 to 165 °C.
